Assay results taken from US10617664B2, “Brain derived PPARα ligands” (Rush University Medical Center, priority 2015, dated 2020).

Target: T1, Y314D-Ppara (Mus musculus, UniProt P23204, Y314D)
T1 construct: the entire mouse GFP-Ppara gene (GFP-FLPpara) and three different mutated genes were cloned; expressed in transfected cells; host or cells: Ppara-null mouse hippocampal neurons, lentiviral transduction
T1 sequence (P23204 1-468 Y314D): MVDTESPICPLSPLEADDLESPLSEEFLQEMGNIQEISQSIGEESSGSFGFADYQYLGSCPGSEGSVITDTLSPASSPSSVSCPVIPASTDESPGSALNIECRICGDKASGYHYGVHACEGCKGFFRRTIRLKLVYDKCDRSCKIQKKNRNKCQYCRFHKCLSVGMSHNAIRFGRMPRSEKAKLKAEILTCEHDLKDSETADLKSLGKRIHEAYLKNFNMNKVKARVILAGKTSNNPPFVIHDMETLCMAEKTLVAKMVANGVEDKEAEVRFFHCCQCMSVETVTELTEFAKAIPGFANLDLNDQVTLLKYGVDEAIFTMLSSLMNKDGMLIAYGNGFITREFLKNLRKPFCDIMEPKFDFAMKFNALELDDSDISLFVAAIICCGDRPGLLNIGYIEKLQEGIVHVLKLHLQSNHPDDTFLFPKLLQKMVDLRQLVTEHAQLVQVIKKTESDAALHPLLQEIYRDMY
Assay: GC-MS of GFP-affinity purified extract of transduced Ppara-null hippocampal neurons
Type: binding
Settings: lenti-GFP-Y314D-Ppara transduced Ppara-null neurons
Procedure: Lentivirus-mediated de novo expression studies were performed, where wild type full-length (GFP-FLPpara) was overexpressed and three different LBD-mutated PPARα (GFP-Y314D, GFP-Y464D and GFP-Y314D/Y464D Ppara) recombinant proteins (FIG. 9D) were expressed in neurons followed by binding analyses with three endogenous ligands. Briefly, site directed mutagenesis was performed in the mouse PPARα with Y314 and Y464 residues replaced separately or together with aspartate (D). […] We normalized peak area of different ligands with that of internal standard and then quantified the binding affinity of these ligands with different construct of PPARα by peak integration statistics (Table 1).
Either E18 cultured mouse hippocampal neurons or hippocampal tissue of 6-8 week old male C57/BL6 mice were homogenized in ice-cold nondetergent hypotonic buffer [10 mM HEPES (pH 7.9), 1.5 mM MgCl2, 10 mM KCl, […], protease and phosphatase inhibitor cocktail]. […] The organic phase was collected, evaporated in the SpeedVac, reconstituted with 30 μL chloroform or acetonitrile, and then analyzed by GC-MS. […] After that, the eluate was collected from the column with 5M NaCl solution, concentrated with PD-10 desalting column and analyzed for GC-MS. […]

amount detected in nuclear extract by GC-MS | Compound
low amount | CCCCCCCCCCCCCCCC(N)=O [HEX, hexadecanamide]
low amount | CCCCCCCCC=CCCCCCCCC(N)=O [OCT, 9-octadecenamide]
